{"source": "paper PMC11354262", "about": "(International Journal of Molecular Sciences, 2024)", "origin": "cited, not measured here", "key": {"[1]": {"settings": "hydrolysis by enzymes in intestine and liver"}}}
{"smiles": "CCCCCCCCCCCCCCCC(=O)NCCO", "note": "[PEA, Palmitoylethanolamide]", "values": [{"measurement": "logarithm of partition coefficient (log P)", "value": "> 5"}, {"measurement": "solubility in water", "value": "practically insoluble in water"}, {"measurement": "lipid half-life", "setting": "[1]", "value": "about 25 min"}]}
